Results on nine compounds are retold here after article PMC6010023, “Diethylalkylsulfonamido(4-methoxyphenyl)methyl)phosphonate/phosphonic acid derivatives act as acid phosphatase inhibitors: synthesis accompanied by experimental and molecular modeling assessments” (Journal of Enzyme Inhibition and Medicinal Chemistry, 2016).

In this test the target is T1, red kidney bean PAP (rkbPAP) (Phaseolus vulgaris, UniProt P80366).
T1 construct: The rkbPAP was purified from red kidney bean according to the method described by Beck et al; from tissue; host or cells: red kidney bean seeds (Phaseolus vulgaris), local market
T1 sequence (P80366 23-459): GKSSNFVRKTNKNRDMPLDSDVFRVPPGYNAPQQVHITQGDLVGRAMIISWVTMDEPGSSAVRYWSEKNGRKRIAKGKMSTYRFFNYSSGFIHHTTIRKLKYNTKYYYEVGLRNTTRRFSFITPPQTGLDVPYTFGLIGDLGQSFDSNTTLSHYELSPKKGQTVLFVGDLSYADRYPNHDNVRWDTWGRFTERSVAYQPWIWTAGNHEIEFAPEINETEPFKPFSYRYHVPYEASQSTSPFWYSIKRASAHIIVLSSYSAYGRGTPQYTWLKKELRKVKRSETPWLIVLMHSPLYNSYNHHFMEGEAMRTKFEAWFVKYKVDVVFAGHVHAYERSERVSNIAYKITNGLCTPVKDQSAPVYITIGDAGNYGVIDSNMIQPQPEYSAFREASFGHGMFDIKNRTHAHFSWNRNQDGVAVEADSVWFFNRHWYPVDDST
Kind of test: rkbPAP inhibition assay with p-NPP as substrate. Format: biochemical. The conditions noted are these: for inhibition of PAP (in words) / Ki: pH 4.9; for inhibition mode: from Ki vs KI and Lineweaver–Burk plots. An excerpt: PAP from red kidney bean (rkbPAP) was purified following a previously published protocol. Briefly, red kidney beans (Phaseolus vulgaris), provided from local market, were ground and suspended in 0.5 M sodium chloride solution. The suspension was filtered through a muslin cloth, followed by ethanol fractionation and ammonium sulfate precipitation. The purple enzyme solution was dialyzed against several changes of 0.25 M NaCl over a period of several days. The purple precipitate, which formed in the dialysis bag was collected by centrifugation. The resulting preparation stored at 4 °C in 0.5 M NaCl. The protein identity and purity was tested by SDS–polyacrylamide gel electrophoresis (SDS–PAGE) and by comparing with molecular weight protein markers, by loading the protein samples on a 12% slab gel. Protein concentration was determined by Lowry method.
Inhibition assays for rkbPAP was performed in 96-well multi-titer plates using a microplate reader. Kinetic measurements were taken at pH 4.9 (0.1 M sodium citrate buffer with 5% DMSO) at 25 °C using p-nitrophenyl phosphate (p-NPP) as the substrate at concentrations of 1, 2, 4, 6, 8, 10, 12, 14, 18 and 24 mM[29]. The hydrolysis of p-NPP by PAP produces p-nitrophenol (p-NP), which has a characteristic intense yellow color at 405 nm with […] [18]^,[26]. The concentration of enzyme used was ∼60 nM, while at least eight concentrations of each compound ranged from 50 to 2000 µM. The IC50 values obtained by “Dose–response inhibition/variable slopes” equation that was performed using GraphPad Prism version 5.00 for Windows (GraphPad Software, San Diego CA, www.graphpad.com). The experimental data are representative example of three independent experiments. In most cases, the standard deviations were almost within 5% of the experimental values, except for some inhibition data points where standard errors of means were within 10% of the measured values. p < .05 was considered statistically significant.
To determination of inhibition mode, the Michaelis–Menten constant (Km) and maximum velocity (Vmax) and inhibition constants (Ki and KI) values were obtained using Equation (1)[29]^,[30] in the presence of at least four concentrations of each compound which were selected from concentration–activity curves. The data were analyzed by nonlinear regression using the program GraphPad Prism (1) v=Vmax[S]/[S](1+[I]/KI)+Km(1+[I]/Ki) where Ki and KI are the equilibrium dissociation constants for competitive and uncompetitive inhibitor binding, respectively, while, v, [S] and [I] represent the rate of product formation, the substrate and the inhibitor concentration, respectively. […] If Ki < KI, the type of enzyme inhibition was defined as competitive-noncompetitive and if Ki > KI, the type of enzyme inhibition was defined as uncompetitive–noncompetitive. […] For better visual presentation of data of inhibition mode, the Lineweaver–Burk plots were also provided.

The mark [1] stands for this setting: rkbPAP, pH 4.9, 25 °C, p-NPP substrate.
Where [2] appears, read: KI, dissociation constant of enzyme–substrate–inhibitor complex (uncompetitive).
[3] abbreviates: Ki, dissociation constant of enzyme–inhibitor complex (competitive).
Setting [4] is: dissociation constant of enzyme–inhibitor complex (competitive), read-out: Ki.
[5] abbreviates: dissociation constant of enzyme–substrate–inhibitor complex (uncompetitive), read-out: KI.
[6] abbreviates: rkbPAP, pH 4.9, 25 °C, p-NPP substrate, read-out: IC50.

Read-outs that look alike come from different tables or passages of the source.

The term IC50 denotes the concentration needed to halve the response being measured. In the case of `CCCCCCS(=O)(=O)NC(c1ccc(OC)cc1)P(=O)(OCC)OCC` (stereo not drawn) [3a, Diethyl(hexylsulfonamido(4-methoxyphenyl)methyl)phosphonate], the “inhibition of PAP (in words)” value is recorded as “negligible inhibitions of PAP, in millimolar range”. In addition, the IC50 result under setting [1] is listed as “Very weak inhibitor”.
For the compound `CCCCCCCCS(=O)(=O)NC(c1ccc(OC)cc1)P(=O)(OCC)OCC` (stereo not drawn) [3b, Diethyl((4-methoxyphenyl)(octylsulfonamido)methyl)phosphonate], the “inhibition of PAP (in words)” value is recorded as “negligible inhibitions of PAP, in millimolar range”. Also, the half-maximal inhibitory concentration (IC50) entry under setting [1] was “Very weak inhibitor”.
A word on the Ki: it is the equilibrium dissociation constant of an inhibitor or competing ligand from its target. Take `CCCCCCCCCCCCS(=O)(=O)NC(c1ccc(OC)cc1)P(=O)(OCC)OCC` (stereo not drawn) [3c, Diethyl(dodecylsulfonamido(4-methoxyphenyl)methyl)phosphonate]: the IC50 came to 759 µM and the inhibition mode result is on record as “noncompetitive inhibition”. Further, the affinity under setting [2] corresponds to a Ki of 211 ± 8 µM. Further, affinity under setting [3] was put at a Ki of 202 ± 11 µM.
For `CCCCCCCCCCCCCCCCS(=O)(=O)NC(c1ccc(OC)cc1)P(=O)(OCC)OCC` (stereo not drawn) [3d, Diethyl(hexadecylsulfonamido(4-methoxyphenyl)methyl)phosphonate], in that order: 92 µM, “mixed manner”, 36 ± 3 µM and 13 ± 1 µM.
For the compound `CCCCCCS(=O)(=O)NC(c1ccc(OC)cc1)P(=O)(O)O` (stereo not drawn) [4a, (Hexylsulfonamido(4-methoxyphenyl)methyl)phosphonic acid], the “inhibition of PAP (in words)” value is reported as “negligible inhibitions of PAP, in millimolar range”. Under setting [1], the IC50 entry is “Very weak inhibitor”.
As to `CCCCCCCCS(=O)(=O)NC(c1ccc(OC)cc1)P(=O)(O)O` (stereo not drawn) [4b, ((4-Methoxyphenyl)(octylsulfonamido)methyl)phosphonic acid], the “inhibition of PAP (in words)” value is listed as “negligible inhibitions of PAP, in millimolar range”. Also, under setting [1], the concentration for half-maximal inhibition (IC50) entry is “Very weak inhibitor”.
As to `CCCCCCCCCCCCS(=O)(=O)NC(c1ccc(OC)cc1)P(=O)(O)O` (stereo not drawn) [4c, (Dodecylsulfonamido(4-methoxyphenyl)methyl)phosphonic acid], the inhibition mode entry was “noncompetitive inhibition”. Besides, the inhibitory constant (Ki) under setting [4] was determined as 95 ± 9 µM. For the same compound, under setting [5], the Ki was 103 ± 5 µM. For the same compound, the IC50 under setting [6] was 421 µM.
For `CCCCCCCCCCCCCCCCS(=O)(=O)NC(c1ccc(OC)cc1)P(=O)(O)O` (stereo not drawn) [4d, (Hexadecylsulfonamido(4-methoxyphenyl)methyl)phosphonic acid], the inhibition mode result is on record as “mixed manner”. In addition, the Ki under setting [4] was 1.1 ± 0.2 µM. The inhibition constant (Ki) under setting [5] was 8.2 ± 1.4 µM. Also, under setting [6], the IC50 is 13 µM.
`O=C(O)C(O)C(O)C(=O)O` (stereo not drawn) [Tartrate, reference compound]: the “inhibition of PAP (in words)” value was “weakly inhibited”. Moreover, the inhibition constant Ki under setting [4] stood at 783 ± 41 µM. In addition, under setting [6], the half-maximal inhibitory concentration (IC50) was found to be 3310 µM.
